In data set [1] the test system is L1210. Briefly: Antitumor activity against mouse L1210 cells […] in ip dosed C3H X DBA2 F1 hybrid mouse on day 0 and dosed once daily on days 1 to 5 assessed as increase in life span relative to control. Type of data set: functional.
Data set [2] is described as follows: Lipophilic-hydrophilic balance, Rm of the compound by partition chromatography. The format is physicochemical.
Data set [3] has as its system Mus musculus. Description: Toxicity in ip dosed C3H X DBA2 F1 hybrid mouse […] with mouse L1210 cells on day 0 and dosed once daily on days 1 to 5 measured after 50 days. Type of data set: organism-based. The following applies: in vivo, 1200 h.
Data set [4] has as its system L1210. Briefly: Antitumor activity against mouse L1210 cells […] in ip dosed C3H X DBA2 F1 hybrid mouse on day 0 and dosed at LD10 level once daily on days 1 to 5 assessed as increase in life span relative to control. Type of data set: functional.

We go through 20 molecules from ChEMBL document CHEMBL3228010, “Potential antitumor agents. 29. Quantitative structure-activity relationships for the antileukemic bisquaternary ammonium heterocycles” (J Med Chem, 1979).

As to `CC[n+]1ccc(Nc2ccc(C(=O)Nc3ccc(Nc4cc[n+](CC)c5ccccc45)cc3)cc2)cc1.[Br-].[Br-]`, the D40 in data set [1] was 0.6 mg/kg. The molecule further had a Rm in data set [2] of 0.45. For the same molecule, the LD10 in data set [3] was 10 mg/kg. For the same molecule, the “log(ILSmax)” value in data set [4] is reported as 2.16.

For the molecule `CCCC[n+]1cccc2cc(NC(=O)/C=C/c3ccc(C(=O)Nc4ccc5c(ccc[n+]5CCCC)c4)cc3)ccc21.Cc1ccc(S(=O)(=O)[O-])cc1.Cc1ccc(S(=O)(=O)[O-])cc1`, the D40 in data set [1] is 25 mg/kg. Besides, in data set [2], the Rm was found to be 0.9. The molecule further came in with an LD10 in data set [3] of 25 mg/kg. Also, the “log(ILSmax)” value in data set [4] stood at 1.4.

For the molecule `CC[n+]1cccc(NC(=O)c2ccc(NC(=O)c3ccc(C(=O)Nc4ccc(C(=O)Nc5ccc[n+](CC)c5)c(N)c4)cc3)cc2N)c1.Cc1ccc(S(=O)(=O)[O-])cc1.Cc1ccc(S(=O)(=O)[O-])cc1`, the D40 in data set [1] is 3.2 mg/kg. The molecule also displayed a Rm in data set [2] of -0.65. Further, in data set [3], the LD10 stood at 10 mg/kg. Besides, the “log(ILSmax)” value in data set [4] stood at 2.18.

As to `CCC[n+]1cccc(-c2ccc(NC(=O)c3ccc(C(=O)Nc4ccc(-c5ccc(-c6ccc(-c7ccc[n+](CCC)c7)cc6)cc5)cc4)cc3)cc2)c1.Cc1ccc(S(=O)(=O)[O-])cc1.Cc1ccc(S(=O)(=O)[O-])cc1`, the D40 in data set [1] worked out at 4 mg/kg. For the same molecule, the Rm in data set [2] is reported as -0.25. This molecule yielded an LD10 in data set [3] of 59 mg/kg. Besides, the “log(ILSmax)” value in data set [4] is recorded as 2.16.

Take `CCC[n+]1ccc(Nc2ccc(NC(=O)/C=C/c3ccc(/C=C/C(=O)Nc4ccc(Nc5cc[n+](CCC)cc5)cc4)cc3)cc2)cc1.[Br-].[Br-]`: the D40 in data set [1] stood at 13 mg/kg. In data set [2], this molecule returned a Rm of 0.46. The molecule also yielded an LD10 in data set [3] of 25 mg/kg. In addition, the “log(ILSmax)” value in data set [4] is 1.85.

In the case of `CC[n+]1cccc(NC(=O)c2ccc(NC(=O)c3ccc(C(=O)Nc4ccc(C(=O)Nc5ccc[n+](CC)c5)cc4)c(C)c3)cc2)c1.Cc1ccc(S(=O)(=O)[O-])cc1.Cc1ccc(S(=O)(=O)[O-])cc1`, in data set [1], the D40 turned out to be 9.6 mg/kg. In data set [2], this molecule came in with a Rm of 0.38. Also, in data set [3], the LD10 was 26 mg/kg. Further, in data set [4], the “log(ILSmax)” value worked out at 1.85.

`CCCCC[n+]1cccc2cc(NC(=O)c3ccc(C(=O)Nc4ccc5c(ccc[n+]5CCCCC)c4)c(N)c3)ccc21.Cc1ccc(S(=O)(=O)[O-])cc1.Cc1ccc(S(=O)(=O)[O-])cc1`: the D40 in data set [1] was 15 mg/kg. The same molecule yielded a Rm in data set [2] of 0.85. Also, in data set [3], the LD10 was 16 mg/kg. Further, the “log(ILSmax)” value in data set [4] stood at 1.51.

Regarding `CC[n+]1cccc(NC(=O)c2ccc(NC(=O)c3ccc(C(=O)Nc4ccc(C(=O)Nc5ccc[n+](CC)c5)c(N)c4)c(N)c3)cc2N)c1.Cc1ccc(S(=O)(=O)[O-])cc1.Cc1ccc(S(=O)(=O)[O-])cc1`, the D40 in data set [1] was 2.6 mg/kg. The molecule also gave a Rm in data set [2] of -0.9. The molecule also returned an LD10 in data set [3] of 14 mg/kg. Moreover, the “log(ILSmax)” value in data set [4] came to 2.29.

Consider `CCC[n+]1cccc2cc(NC(=O)c3ccc(C(=O)Nc4ccc5c(ccc[n+]5CCC)c4)cc3)ccc21.Cc1ccc(S(=O)(=O)[O-])cc1.Cc1ccc(S(=O)(=O)[O-])cc1`, for which the D40 in data set [1] was found to be 15 mg/kg. This molecule showed a Rm in data set [2] of 0.3. This molecule registered an LD10 in data set [3] of 21 mg/kg. The “log(ILSmax)” value in data set [4] is given as 1.89.

Turning to `C[n+]1ccc(Nc2ccc(NC(=O)c3ccc(C(=O)Nc4ccc(C(=O)Nc5ccc[n+](C)c5)cc4)cc3)cc2)cc1.Cc1ccc(S(=O)(=O)[O-])cc1.Cc1ccc(S(=O)(=O)[O-])cc1`, the D40 in data set [1] was 0.8 mg/kg. Moreover, the Rm in data set [2] is 0.07. The same molecule yielded an LD10 in data set [3] of 9 mg/kg. Also, the “log(ILSmax)” value in data set [4] was 2.03.

As to `CC[n+]1ccc(Nc2ccc(C(=O)Nc3ccc(/C(C)=N/NC(=N)N)cc3)c(N)c2)c2cc(N)ccc21.Cc1ccc(S(=O)(=O)O)cc1.Cc1ccc(S(=O)(=O)[O-])cc1`, in data set [1], the D40 worked out at 6 mg/kg. Also, the Rm in data set [2] is -0.2. Also, the LD10 in data set [3] worked out at 50 mg/kg. Besides, the “log(ILSmax)” value in data set [4] came out at 2.32.

For `CC[n+]1cccc(NC(=O)c2ccc(NC(=O)c3ccc(C(=O)Nc4ccc(C(=O)Nc5ccc[n+](CC)c5)cc4OC)cc3)c(OC)c2)c1.Cc1ccc(S(=O)(=O)[O-])cc1.Cc1ccc(S(=O)(=O)[O-])cc1`, the D40 in data set [1] is 10.3 mg/kg. The molecule further gave a Rm in data set [2] of -0.15. The same molecule had an LD10 in data set [3] of 25 mg/kg. The “log(ILSmax)” value in data set [4] turned out to be 1.86.

For the molecule `CCC[n+]1ccc(Nc2ccc(NC(=O)c3ccc(Nc4cc[n+](CCC)c5ccc(N)cc45)cc3)cc2N)cc1.[I-].[I-]`, the D40 in data set [1] worked out at 3.6 mg/kg. The Rm in data set [2] turned out to be 0.41. Further, the LD10 in data set [3] was found to be 10 mg/kg. In addition, the “log(ILSmax)” value in data set [4] worked out at 1.95.

`CC[n+]1cccc(NC(=O)c2ccc(NC(=O)c3ccc(C(=O)Nc4ccc(C(=O)Nc5ccc[n+](CC)c5)cc4)c(Cl)c3)cc2)c1.Cc1ccc(S(=O)(=O)[O-])cc1.Cc1ccc(S(=O)(=O)[O-])cc1`: the D40 in data set [1] turned out to be 22 mg/kg. In data set [2], the Rm amounted to 0.42. For the same molecule, the LD10 in data set [3] was 29 mg/kg. The “log(ILSmax)” value in data set [4] turned out to be 1.7.

For the molecule `CCCC[n+]1cccc(NC(=O)c2ccc(NC(=O)/C=C/c3ccc(C(=O)Nc4ccc(C(=O)Nc5ccc[n+](CCCC)c5)cc4)cc3)cc2)c1.Cc1ccc(S(=O)(=O)[O-])cc1.Cc1ccc(S(=O)(=O)[O-])cc1`, the D40 in data set [1] stood at 14 mg/kg. Besides, the Rm in data set [2] is 0.4. In addition, in data set [3], the LD10 worked out at 24 mg/kg. In data set [4], the “log(ILSmax)” value is recorded as 1.72.

Consider `CCC[n+]1cccc2cc(NC(=O)COc3ccc(C(=O)Nc4ccc5c(ccc[n+]5CCC)c4)cc3)ccc21.Cc1ccc(S(=O)(=O)[O-])cc1.Cc1ccc(S(=O)(=O)[O-])cc1`, for which, in data set [1], the D40 stood at 6.3 mg/kg. In data set [2], this molecule yielded a Rm of 0.15. The molecule also returned an LD10 in data set [3] of 8.3 mg/kg. Further, the “log(ILSmax)” value in data set [4] was 1.59.

Consider `CC[n+]1cccc(-c2ccc(NC(=O)c3ccc(C(=O)Nc4ccc(-c5ccc(-c6ccc(-c7ccc[n+](CC)c7)cc6)cc5)cc4)cc3)cc2)c1.Cc1ccc(S(=O)(=O)[O-])cc1.Cc1ccc(S(=O)(=O)[O-])cc1`, for which the D40 in data set [1] worked out at 5.6 mg/kg. The same molecule registered a Rm in data set [2] of -0.44. The LD10 in data set [3] was 43 mg/kg. In addition, in data set [4], the “log(ILSmax)” value came out at 2.2.

Regarding `CCC[n+]1cccc(NC(=O)c2ccc(NC(=O)c3ccc(C(=O)Nc4ccc(C(=O)Nc5ccc[n+](CCC)c5)c(N)c4)cc3)cc2N)c1.Cc1ccc(S(=O)(=O)[O-])cc1.Cc1ccc(S(=O)(=O)[O-])cc1`, the D40 in data set [1] was determined as 5 mg/kg. Further, in data set [2], the Rm is given as -0.38. In data set [3], this molecule came in with an LD10 of 30 mg/kg. For the same molecule, the “log(ILSmax)” value in data set [4] is reported as 2.02.

`CC[n+]1cccc(NC(=O)c2ccc(NC(=O)c3ccc(C(=O)Nc4ccc(C(=O)Nc5ccc[n+](CC)c5)cc4C)cc3)c(C)c2)c1.Cc1ccc(S(=O)(=O)[O-])cc1.Cc1ccc(S(=O)(=O)[O-])cc1` returned a Rm in data set [2] of 0.47. This molecule showed an LD10 in data set [3] of 18 mg/kg. In addition, the “log(ILSmax)” value in data set [4] was less than 1.4.

`CC[n+]1cccc2cc(NC(=O)c3ccc(C(=O)Nc4ccc5c(ccc[n+]5CC)c4)cc3)ccc21.Cc1ccc(S(=O)(=O)[O-])cc1.Cc1ccc(S(=O)(=O)[O-])cc1` yielded a Rm in data set [2] of 0.03. In data set [3], the LD10 was 4 mg/kg. Moreover, the “log(ILSmax)” value in data set [4] is 1.43.
